Test [1] is described as follows: Luminescence Cell-Based Dose Confirmation HTS to Identify Activators of 5'UTR Stem-Loop Driven Alpha-Synuclein mRNA Translation in H4 Neuroglioblastoma Cells. [Related pubchem assays: 1829 (Project Summary), 1814 (Primary HTS)]. In kind it is functional.
For a further test, the system named is H4. Put plainly: Luminescence Cell-Based Dose Response HTS to Identify Activators of 5'UTR Stem-Loop Driven Prion Protein mRNA Translation in H4 Neuroglioblastoma Cells. [Related pubchem assays: 1829 (Project Summary), 1814 (Primary HTS)]. The class given is functional. The note with it: Homo sapiens.
The nature of test [2]: Luminescence Cell-Based Dose Response HTS to Identify Activators of Luciferase Translation or Activity in H4 […] Cells. [Related pubchem assays: 1829 (Project Summary), 1814 (Primary HTS)]. The class given is functional.
The nature of test [3]: off-target signal loss in HeLa-CEM21 co-culture – HeLa F-luc CTL cells, cherry-picked, counter-screen for HIV-1 Env fusion inhibitor project, dose response (AID 652040).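 Also: potency for signal decrease marking cytotoxic or nonspecific inhibition.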 The class given is functional, cell-based. (In general: Counterscreens check selectivity or assay interference.)
Test [4] can be described thus: blockers of HIV-1 envelope-mediated cell-cell fusion – cherry-pick, dose response (AID 652057). In kind it is functional, cell-based.
Test [5] can be described thus: blockers of HIV-1 ZM109 envelope-driven cell-cell fusion – HeLa effector, CEM target cells, luciferase, cherry-pick, dose response (AID 652058).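 Also: luciferase signal from HIV-1 Env mediated cell-cell fusion of effector and target cells.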 In kind it is functional, cell-based.
The nature of test [6]: HIV-1 AD8 envelope cell-cell fusion blockers – cherry-pick, dose response (AID 652062).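 Also: luciferase signal from cell-cell fusion driven by HIV-1 clade B AD8 Env; potency is for inhibitors of fusion seen as a drop in luminescence.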 The class given is functional, cell-based.
The target in test [7] is T1, Rac GTPase-activating protein 1 (Homo sapiens, UniProt Q9H0H5).
T1 sequence (Q9H0H5 whole entry): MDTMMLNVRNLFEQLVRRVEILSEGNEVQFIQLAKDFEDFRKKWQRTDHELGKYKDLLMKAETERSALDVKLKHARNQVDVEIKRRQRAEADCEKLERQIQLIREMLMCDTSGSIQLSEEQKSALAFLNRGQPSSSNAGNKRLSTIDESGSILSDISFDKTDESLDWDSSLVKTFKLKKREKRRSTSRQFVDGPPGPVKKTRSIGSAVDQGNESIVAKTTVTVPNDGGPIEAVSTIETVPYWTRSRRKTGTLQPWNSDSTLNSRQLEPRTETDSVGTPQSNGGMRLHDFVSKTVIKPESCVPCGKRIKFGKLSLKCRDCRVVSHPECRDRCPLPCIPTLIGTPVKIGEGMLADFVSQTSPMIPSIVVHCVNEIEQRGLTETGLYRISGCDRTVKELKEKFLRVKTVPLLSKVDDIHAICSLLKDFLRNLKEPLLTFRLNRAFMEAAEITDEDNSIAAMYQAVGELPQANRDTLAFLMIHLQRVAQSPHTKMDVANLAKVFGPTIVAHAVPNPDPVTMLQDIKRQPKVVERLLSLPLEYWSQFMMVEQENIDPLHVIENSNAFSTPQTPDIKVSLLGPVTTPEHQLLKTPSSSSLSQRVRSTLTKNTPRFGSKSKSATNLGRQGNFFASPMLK
Kind of test: blockers of MgcRacGAP-driven Rac1 GTP hydrolysis – biochemical, ADP Hunter fluorescence, primary and confirmatory, confirmation (AID 624330). In kind it is functional.

Test [8] deals with T2, Histone-lysine N-methyltransferase NSD2 (Homo sapiens, UniProt O96028).
T2 sequence (O96028 whole entry): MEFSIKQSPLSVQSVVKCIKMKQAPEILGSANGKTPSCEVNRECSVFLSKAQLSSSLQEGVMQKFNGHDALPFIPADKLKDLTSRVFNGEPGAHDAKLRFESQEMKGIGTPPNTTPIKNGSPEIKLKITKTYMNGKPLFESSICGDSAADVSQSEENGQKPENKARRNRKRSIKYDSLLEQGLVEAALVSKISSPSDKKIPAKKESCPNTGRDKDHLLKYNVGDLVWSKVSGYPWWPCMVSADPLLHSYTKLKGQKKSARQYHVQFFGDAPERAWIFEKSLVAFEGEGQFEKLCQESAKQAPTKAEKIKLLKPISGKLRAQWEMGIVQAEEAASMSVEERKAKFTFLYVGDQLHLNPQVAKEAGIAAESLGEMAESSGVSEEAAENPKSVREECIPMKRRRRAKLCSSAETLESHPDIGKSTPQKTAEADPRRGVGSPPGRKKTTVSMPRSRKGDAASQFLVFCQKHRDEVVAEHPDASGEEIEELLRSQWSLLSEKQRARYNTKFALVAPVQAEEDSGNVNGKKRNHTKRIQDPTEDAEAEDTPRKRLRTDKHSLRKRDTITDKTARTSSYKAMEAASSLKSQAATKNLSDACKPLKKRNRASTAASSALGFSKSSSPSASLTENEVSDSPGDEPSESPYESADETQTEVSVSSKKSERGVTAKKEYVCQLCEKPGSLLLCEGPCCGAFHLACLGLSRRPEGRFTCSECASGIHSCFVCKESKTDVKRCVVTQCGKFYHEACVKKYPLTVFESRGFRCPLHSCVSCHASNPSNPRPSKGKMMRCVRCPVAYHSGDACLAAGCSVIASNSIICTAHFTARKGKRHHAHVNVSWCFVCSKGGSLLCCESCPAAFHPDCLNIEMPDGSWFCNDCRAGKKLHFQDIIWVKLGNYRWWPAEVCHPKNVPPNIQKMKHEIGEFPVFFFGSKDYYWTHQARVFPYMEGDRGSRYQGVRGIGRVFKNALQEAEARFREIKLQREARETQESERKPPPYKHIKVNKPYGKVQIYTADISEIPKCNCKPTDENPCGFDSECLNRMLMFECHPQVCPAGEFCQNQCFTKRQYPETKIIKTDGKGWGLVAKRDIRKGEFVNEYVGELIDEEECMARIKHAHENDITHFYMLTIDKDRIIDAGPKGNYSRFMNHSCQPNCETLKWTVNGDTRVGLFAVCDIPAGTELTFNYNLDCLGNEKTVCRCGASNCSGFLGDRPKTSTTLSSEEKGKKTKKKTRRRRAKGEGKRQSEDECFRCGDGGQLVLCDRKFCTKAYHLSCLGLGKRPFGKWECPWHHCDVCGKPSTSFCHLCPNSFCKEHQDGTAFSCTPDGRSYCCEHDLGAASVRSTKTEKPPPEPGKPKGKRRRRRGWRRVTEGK
In kind it is biochemical.

For test [9], the target named is Glyceraldehyde-3-phosphate dehydrogenase (Homo sapiens, UniProt P04406).
In test [10] the target is T3, Polyadenylate-binding protein 1 (Homo sapiens, UniProt P11940). Kind of test: MLLE domain peptide-binding blockers, IC50 – biochemical, fluorescence polarization, FITC-PAM2 peptide, dose response (AID 602259). The class given is functional. Conditions: read-out: IC50_Mean. (In fluorescence polarisation assays a small probe gives low polarisation when free and higher when bound to something large.)

The target in test [11] is T3, Polyadenylate-binding protein 1. Kind of test: MLLE binding blockers, Cy5 peptide tracer – biochemical, fluorescence polarization, Cy5-PAM2 peptide, secondary, miRNA deadenylation inhibitor project, dose response (AID 602260). Conditions: read-out: IC50_Mean. The class given is functional.
A short description of test [12]: HEK-293T viability loss after treatment – luminescence, T-cell screen hits, cytotoxicity control for TCR NF-kB inhibitor project, dose response (AID 489026).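 Also: cells exposed to compound about 14 hours before the viability readout.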 The class given is functional, cell-based.
A short description of test [13]: Luminescence Cell-Based Dose Retest to Confirm Inhibitors of Cancer Stem Cells. [Related pubchem assays (depositor defined):AID2717, AID2721]. In kind it is functional. Conditions: Homo sapiens.
A further test addresses Cytochrome P450 2C9 (Homo sapiens, UniProt P11712).
A short description of test [14]: Vero E6 cell cytotoxicity, dose response, cytotoxicity control for non-replicating M. tuberculosis project, secondary assay (AID 492998). The class given is functional, VeroE6. Conditions: Vero C1008.
Another test can be described thus: cells. In kind it is functional.
A short description of test [15]: P. falciparum Dd2 growth inhibitors, dose response, SYBR Green, cherry-picked samples (AID 1159567). The class given is functional, cell-based.

Activity calls are given as the source filed them. A value given as a limit tells only on which side of the number the result lay.

Glyceraldehyde-3-phosphate dehydrogenase, sequence (P04406 whole entry, the tested form may be a part): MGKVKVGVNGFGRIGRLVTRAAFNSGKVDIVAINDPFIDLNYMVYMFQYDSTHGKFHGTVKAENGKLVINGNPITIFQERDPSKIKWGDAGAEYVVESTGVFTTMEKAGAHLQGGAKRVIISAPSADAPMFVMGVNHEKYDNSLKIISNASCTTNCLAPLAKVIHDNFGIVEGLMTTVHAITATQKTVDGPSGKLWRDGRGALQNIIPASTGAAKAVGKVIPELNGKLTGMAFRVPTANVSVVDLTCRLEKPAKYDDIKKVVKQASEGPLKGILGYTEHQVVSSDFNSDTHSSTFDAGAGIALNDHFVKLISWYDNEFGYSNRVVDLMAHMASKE
T3 sequence (P11940 whole entry, the tested form may be a part): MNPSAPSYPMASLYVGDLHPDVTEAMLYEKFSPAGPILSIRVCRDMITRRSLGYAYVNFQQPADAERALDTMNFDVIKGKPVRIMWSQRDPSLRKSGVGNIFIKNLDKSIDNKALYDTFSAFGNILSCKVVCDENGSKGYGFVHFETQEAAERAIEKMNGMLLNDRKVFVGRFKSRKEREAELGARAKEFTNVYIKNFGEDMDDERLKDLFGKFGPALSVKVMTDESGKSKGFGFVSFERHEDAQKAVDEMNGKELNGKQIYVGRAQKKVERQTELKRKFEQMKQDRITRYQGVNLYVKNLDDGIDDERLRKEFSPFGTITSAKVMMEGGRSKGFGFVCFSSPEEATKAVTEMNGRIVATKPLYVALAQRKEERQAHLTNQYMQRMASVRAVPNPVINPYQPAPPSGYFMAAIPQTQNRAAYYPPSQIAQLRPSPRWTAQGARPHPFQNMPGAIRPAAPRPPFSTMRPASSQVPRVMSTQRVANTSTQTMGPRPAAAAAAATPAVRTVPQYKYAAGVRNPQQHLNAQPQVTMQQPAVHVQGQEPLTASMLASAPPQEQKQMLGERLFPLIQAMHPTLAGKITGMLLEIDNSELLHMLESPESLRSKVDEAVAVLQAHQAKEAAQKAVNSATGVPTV
Cytochrome P450 2C9, sequence (P11712 whole entry): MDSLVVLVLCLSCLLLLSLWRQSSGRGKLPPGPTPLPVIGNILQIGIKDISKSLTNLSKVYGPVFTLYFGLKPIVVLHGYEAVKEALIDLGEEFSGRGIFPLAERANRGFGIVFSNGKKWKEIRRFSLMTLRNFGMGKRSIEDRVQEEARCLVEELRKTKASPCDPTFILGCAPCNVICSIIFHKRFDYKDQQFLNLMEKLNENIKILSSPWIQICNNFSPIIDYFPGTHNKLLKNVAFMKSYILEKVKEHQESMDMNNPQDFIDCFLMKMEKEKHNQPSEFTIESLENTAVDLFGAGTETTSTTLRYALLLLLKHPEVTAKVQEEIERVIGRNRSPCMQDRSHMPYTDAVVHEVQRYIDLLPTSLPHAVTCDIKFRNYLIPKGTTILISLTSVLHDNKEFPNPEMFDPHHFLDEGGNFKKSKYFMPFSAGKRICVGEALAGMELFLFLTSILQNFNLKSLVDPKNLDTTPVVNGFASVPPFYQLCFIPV

A word on the EC50: it is the concentration needed to bring the measured effect to its halfway point. With `O=C(CSc1ccc(-c2ccccc2)nn1)Nc1ccc2c(c1)OCCO2`, the concentration for a half-maximal effect (EC50) was 7.15 µM (active) in [1], > 120 µM (not active) in the test with H4 and 13.1 µM (active) in test [2].
What is called AC50 is the midpoint of the concentration-response curve, whichever way the signal moves. As to `CC(C)(C)N1C(=O)[C@H]2[C@@H](c3ccc(Br)cc3)N3C(=O)N(c4cccc(Cl)c4)C(=O)[C@@]3(C)[C@H]2C1=O`, the AC50 in test [3] was 0.843 µM (active); in test [4], 0.464 µM (active); in test [5], 0.542 µM (active); in test [6], 3.2 µM (active).
On to `Cc1ccc(N2C(=O)c3[nH]nc(C)c3C2c2ccco2)cc1` (stereo not given), for which the EC50 is > 120 µM (not active) in test [1], 17.9 µM (inconclusive) with H4 and 48.5 µM (active) in test [2].
Regarding `O=[N+]([O-])c1ccccc1Nc1ccc(O)cc1`, the IC50 in test [7] was 22.6 µM (active). Further, the AC50 in test [8] is > 20 µM (inactive).
For the compound `C=CCNC(=O)c1ccc(OC2CCN(S(=O)(=O)N(C)C)CC2)cc1`, the EC50 in test [1] was 16.9 µM (active); in the test with H4, 25.6 µM (active); in [2], 15.2 µM (active).
On to `COc1cccc(CC(CC(=O)O)C(=O)O)c1` (stereo not given), for which the IC50 in test [9] is given as > 100 µM (not active).
As for `CCCn1c(N)c(C(=S)NC(=O)C2CC2)c(=O)n(C)c1=O`, the IC50 in [10] and in test [11] was > 66 µM (inactive) throughout.
On to `Cc1cc2c(cc1C)C(c1ccccc1OC(C)C)CC(=O)N2` (stereo not given), for which the IC50 in [12] was 62.2 µM (inactive). The half-maximal activity concentration (AC50) in test [13] was 0.796 µM (active).
Take `CCOP(=O)(Cc1cc(C(C)=O)c(C)o1)OCC`: the IC50 in test [10] and in test [11] was > 66 µM (inactive) in each case.
`CCCCNC(=O)c1sc(=S)n(-c2ccccc2OC)c1N`: the IC50 in test [10] and in test [11] was > 66 µM (inactive) each time.
Take `CC(C)N1C(=O)CC(Nc2ccc(N3CCOCC3)cc2)C1=O` (stereo not given): the figures for the EC50 (in test [1]; in the test on H4; in [2]) were > 120 µM (not active), > 120 µM (not active) and 29.1 µM (active), respectively.
For `Cn1c(O)nc2cc3ccccc3cc21`, the AC50 was 0.717 µM (active) in [3], 1.46 µM (active) in [4], 53.3 µM (active) in test [5] and 4.99 µM (active) in test [6].
For the compound `CC(=O)Nc1nnc(SCc2cccc3ccccc23)[nH]1`, the IC50 in [9] is reported as > 100 µM (not active).
Consider `COc1ccc(C)c(Cn2c(-c3nonc3N)nc3ccccc32)c1`, for which the IC50 in test [12] was > 80 µM (inactive).
Take `Cn1c(-c2ccc3c(c2)OCO3)cnc1NCc1ccccc1`: the concentration at half-maximal activity (AC50) at Cytochrome P450 2C9 was 31.6 µM (inconclusive). In addition, the values for the EC50 (in [1]; in the test with H4; in test [2]) were 14.6 µM (active), 39.9 µM (active) and 6.69 µM (active), respectively.
Consider `O=C(NCc1cccs1)C1CCN(c2ccc(S(=O)(=O)N3CCOCC3)cc2Cl)CC1`, for which, in test [12], the IC50 was > 80 µM (inactive).
Turning to `COc1cc(/C=C2/SC(=S)NC2=O)cc(Cl)c1OCc1ccc(Cl)cc1Cl`, the IC50 in [9] is > 100 µM (not active).
The CC50 is the concentration at which the toxic effect on the cells reaches its halfway point. As to `Cc1cc(C)n2[nH]c(=O)c(N=Nc3cccc(Cl)c3)c2n1`, in [14], the CC50 was > 20 µM (active). Moreover, the IC50 in “cells” was 17.7 µM (active).
Take `Cc1cccc2cc(/C=C3\N=C(c4ccccc4)OC3=O)c(N(C)C)nc12`: in test [9], the IC50 is > 100 µM (not active).
Turning to `CCN1C(=O)[C@H]2[C@H]3CN=C(SCc4ccc(Cl)cc4)N3[C@@](CC)(C(=O)OC)[C@H]2C1=O`, the AC50 in test [3] was 3.59 µM (active); in test [4], 3.34 µM (active); in test [5], 3.37 µM (active); in [6], 5.43 µM (active).
For `CC[C@@]1(C(=O)OC)N[C@H](CN(C)C(=O)Nc2ccc(C(F)(F)F)cc2)[C@@H]2C(=O)N(Cc3ccccc3)C(=O)[C@@H]21` the same measures were 0.74 µM (active), 0.336 µM (active), 0.604 µM (active) and 1.21 µM (active).
Turning to `C[C@H]1CN([C@@H](C)CO)C(=O)Cc2cc(NC(=O)Nc3ccccc3)ccc2O[C@H]1CN(C)S(=O)(=O)c1ccccc1`, the figures for the AC50 in test [4], in test [5] and in test [6] were 5.16 µM (active), 4.49 µM (active) and 5.2 µM (active), respectively.
Consider `CN(C)c1cccc2c(S(=O)(=O)Nc3ccccn3)cccc12`, for which the AC50 in [8] was 15.3 µM (active).
Still for that read-out and setting: the figure for `CCN(CC)CCNC(=O)c1c(C)[nH]c(/C=C2\C(=O)Nc3ccc(F)cc32)c1C` is > 20 µM (inactive).
On to `N#Cc1ccc(-c2ccc3c(c2)[C@@H]2[C@@H](CCN2C(=O)C2CCC2)[C@@H](CO)N3)cc1`, for which the half-maximal activity concentration (AC50) in test [15] is 9.93 µM (active).
The same measure, in the same setting: as for `Cc1ccc(S(=O)(=O)N(C)C[C@H]2Oc3ccc(NC(=O)c4ccncc4)cc3C(=O)N([C@@H](C)CO)C[C@@H]2C)cc1`, the figure is 8.41 µM (active).
For `CCCCC1NC(C(=O)O)CS1` (stereo not given), the IC50 in test [10] and in test [11] was > 66 µM (inactive) throughout.
Turning to `COc1cc(C)c(Cl)cc1S(=O)(=O)Nc1cccnc1`, the IC50 in test [9] was > 10 µM (inconclusive).
